target: T1, SIRT7 protein (Homo sapiens, UniProt Q9NRC8); test: SIRT Glo assay, inhibitory activity against Sirt7; type: biochemical; details: 10 μM compound
T1 construct: purchased SignalChem S41-30H
T1 sequence (Q9NRC8 1-400): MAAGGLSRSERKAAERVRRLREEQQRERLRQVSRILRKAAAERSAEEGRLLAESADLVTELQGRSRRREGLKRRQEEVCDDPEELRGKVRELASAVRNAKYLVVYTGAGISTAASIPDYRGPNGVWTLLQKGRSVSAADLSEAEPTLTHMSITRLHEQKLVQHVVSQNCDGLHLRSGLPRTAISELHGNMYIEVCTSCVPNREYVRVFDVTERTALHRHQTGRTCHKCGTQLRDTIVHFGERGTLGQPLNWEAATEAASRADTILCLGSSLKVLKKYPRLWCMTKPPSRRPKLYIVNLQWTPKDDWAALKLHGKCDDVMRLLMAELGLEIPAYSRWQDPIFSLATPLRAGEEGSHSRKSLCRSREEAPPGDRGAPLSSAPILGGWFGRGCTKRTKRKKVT
Experimental: Promega's Cat. No. 6450 SIRT Glo assay kit was used, and as the target SIRT7 protein, No. S41-30H protein of SignalChem's Cat. was used. Prepare the compound by diluting it in SIRT Glo buffer in advance to a concentration twice as thick as the final concentration. For the positive control group of white 384 well plate (Greiner Bioone, white, small volume, Cat. No. 874075), and for compound group, dilute sirt7 protein in SIRT Glo buffer and dispense by 5 μL to contain 20 ng per well. In the background control group, 10 μL of SIRT Glo buffer is dispensed.
After adding 5 μL of SIRT Glo buffer to the positive control group, and 5 μL of the diluted compound to the compound group, react for 30 minutes. After making the substrate provided in the SIRT Glo assay, adding 10 μL each, and reacting for 1 hour, the luciferase activity is measured with a microplate reader (Molecular Device, spectramax i3).
Subtract the luciferase level of the background control group in all wells. The % inhibition of the compound was used to obtain the compound's rate of inhibitory activity against sirt7 in the following:
% inhibition=100−(compound group/positive control group)×100.

Row | Structure (SMILES) | inhibition at 10 µM [%]
1 | O=C(Nc1nc2ccccc2s1)c1ccc(Oc2ncc(F)cn2)cc1 [Compound 1-21, N-(benzo[d]thiazol-2-yl)-4-((5-fluoropyrimidin-2-yl)oxy)benzamide] | 41
2 | O=C(Nc1nc2ccccc2s1)c1ccc(CN2CCN(C(=O)Nc3ccc(Cl)cc3)CC2)cc1 [Compound 1-49, 4-(4-(benzo[d]thiazol-2-ylcarbamoyl)benzyl)-N-(4-chlorophenyl)piperazine-1-carboxamide] | 89
3 | O=C(Nc1nc2ccccc2[nH]1)c1ccc(Oc2ncc(F)cn2)cc1 [Compound 1-10, N-(1H-benzo[d]imidazol-2-yl)-4-((5-fluoropyrimidin-2-yl)oxy)benzamide] | 56
4 | Cc1ccc(Oc2ccc(C(=O)Nc3nc4ccccc4s3)cc2)nn1 [Compound 1-15, N-(benzo[d]thiazol-2-yl)-4-((6-methylpyridazin-3-yl)oxy)benzamide] | 52
5 | O=C(Nc1nc2ccccc2s1)c1ccc(CN2CCN(C(=O)NC3CCCCC3)CC2)cc1 [Compound 1-53, 4-(4-(benzo[d]thiazol-2-ylcarbamoyl)benzyl)-N-cyclohexylpiperazine-1-carboxamide] | 97
6 | O=C(Nc1nc2ccccc2s1)c1ccc(CN2CCNCC2)cc1 [Compound 1-31, N-(benzo[d]thiazol-2-yl)-4-(piperazin-1-ylmethyl)benzamide] | 15
7 | Cc1cc(C)cc(NC(=O)N2CCN(Cc3ccc(C(=O)Nc4nc5ccccc5s4)cc3)CC2)c1 [Compound 1-47, 4-(4-(benzo[d]thiazol-2-ylcarbamoyl)benzyl)-N-(3,5-dimethyphenyl)piperazine-1-carboxamide] | 88
8 | Cc1ccc(NC(=O)N2CCN(Cc3ccc(C(=O)Nc4nc5ccccc5s4)cc3)CC2)cc1 [Compound 1-51, 4-(4-(benzo[d]thiazol-2-ylcarbamoyl)benzyl)-N-(p-tolyl)piperazine-1-carboxamide] | 90
9 | CC(C)(C)OC(=O)N1CC=C(c2ccc(C(=O)Nc3nc4ccccc4s3)cc2)CC1 [Compound 1-74, tert-butyl 4-(4-(benzo[d]thiazol-2-ylcarbamoyl)phenyl)-3,6-dihydropyridine-1-(2H)-carboxylate] | 10
10 | O=C(Nc1nc2ccccc2s1)c1c(F)cc(C=C2CCN(C(=O)Nc3ccc(C(F)(F)F)cc3)CC2)cc1F [Compound 1-102, 4-(4-(benzo[d]thiazol-2-ylcarbamoyl)-3,5-difluorobenzylidene)-N-(4-(trifluoromethyl)phenyl)piperidine-1-carboxamide] | 37
11 | O=C(Nc1nc2ccccc2[nH]1)c1ccc(CN2CCNCC2)cc1 [Compound 1-3, N-(1H-benzo[d]imidazol-2-yl)-4-(piperazin-1-ylmethyl)benzamide] | 10
12 | O=C(Nc1nc2ccccc2s1)c1ccc(C=C2CCNCC2)cc1F [Compound 1-87, N-(benzo[d]thiazol-2-yl)-2-fluoro-4-(piperidin-4-ylidenemethyl)benzamide] | 100
13 | O=C(Nc1nc2ccccc2s1)c1ccc(C=C2CCN(C(=O)Nc3ccccc3)CC2)cc1C(F)(F)F [Compound 1-81, 4-(4-(benzo[d]thiazol-2-ylcarbamoyl)-3-(trifluoromethyl)benzylidene)-N-phenylpiperidine-1-carboxamide] | 32
14 | O=C(Nc1nc2ccccc2s1)c1ccc(C2CCN(C(=O)Nc3ccc(C(F)(F)F)cc3)CC2)cc1 [Compound 1-77] | 6
15 | CC(C)(C)OC(=O)N1CCC(=Cc2ccc(C(=O)Nc3nc4ccccc4s3)c(C(F)(F)F)c2)CC1 [Compound 1-78, tert-butyl 4-(4-(benzo[d]thiazol-2-ylcarbamoyl)-3-(trifluoromethyl)benzylidene)piperidine-1-carboxylate] | 14
16 | O=C(Nc1nc2ccccc2s1)c1ccc(CN2CCN(S(=O)(=O)c3ccccc3)CC2)cc1 [Compound 1-35, N-(benzo[d]thiazol-2-yl)-4-((4-(phenylulfonyl)piperazin-1-yl)methyl)benzamide] | 20
17 | CCc1ccccc1NC(=O)N1CCN(Cc2ccc(C(=O)Nc3nc4ccccc4s3)cc2)CC1 [Compound 1-50, 4-(4-(benzo[d]thiazol-2-ylcarbamoyl)benzyl)-N-(2-ethylphenyl)piperazine-1-carboxamide] | 61
18 | O=C(Nc1nc2ccccc2s1)c1ccc(C=C2CCN(C(=O)Nc3ccccc3)CC2)cc1F [Compound 1-89, 4-(4-(benzo[d]thiazol-2-ylcarbamoyl)-3-fluorobenzylidene)-N-phenylpiperidine-1-carboxamide] | 97
19 | O=C(Nc1nc2ccccc2s1)c1ccc(C=C2CCN(C(=O)c3ccccc3)CC2)cc1F [Compound 1-92, N-(benzo[d]thiazol-2-yl)-4-((1-benzoylpiperidin-4-ylidene)methyl)-2-fluorobenzamide] | 97
20 | O=C(Nc1nc2ccccc2s1)c1ccc(CC2CCNCC2)cc1 [Compound 1-66, N-(benzo[d]thiazol-2-yl)-4-(piperidin-4-ylmethyl)benzamide] | 16
21 | O=C(Nc1nc2ccccc2s1)c1ccc(CN2CCN(S(=O)(=O)c3ccc(C(F)(F)F)cc3)CC2)cc1 [Compound 1-36, N-(benzo[d]thiazol-2-yl)-4-((4-((4-(trifluoromethyl)phenyl)sulfonyl)piperazin-1-yl)methyl)benzamide] | 15
22 | CC(C)(C)CC(C)(C)NC(=O)N1CCN(Cc2ccc(C(=O)Nc3nc4ccccc4s3)cc2)CC1 [Compound 1-57, 4-(4-(benzo[d]thiazol-2-ylcarbamoyl)benzyl)-N-(2,4,4-trimethylpentan-2-yl)piperazine-1-carboxamide] | 12
23 | CCNC(=O)N1CCC(=Cc2ccc(C(=O)Nc3nc4ccccc4s3)c(C(F)(F)F)c2)CC1 [Compound 1-80, 4-(4-(benzo[d]thiazol-2-ylcarbamoyl)-3-(trifluoromethyl)benzylidene)-N-ethylpiperidine-1-carboxamide] | 80
24 | O=C(Nc1nc2ccccc2s1)c1ccc(C2=CCN(C(=O)Nc3ccc(C(F)(F)F)cc3)CC2)cc1 [Compound 1-76] | 5
25 | O=C(Nc1nc2ccccc2s1)c1ccc(CC2CCNCC2)cc1C(F)(F)F [Compound 1-83, N-(benzo[d]thiazol-2-yl)-4-(piperidin-4-ylmethyl)-2-(trifluoromethyl)benzamide] | 42
26 | CCNC(=O)N1CCC(=Cc2ccc(C(=O)Nc3nc4ccccc4s3)c(F)c2)CC1 [Compound 1-88, 4-(4-(benzo[d]thiazol-2-ylcarbamoyl)-3-fluorobenzylidene)-N-ethylpiperidine-1-carboxamide] | 100
27 | CC(C)(C)OC(=O)N1CCC2(CC1)CN(c1nc3ccccc3s1)C2 [Compound 1-24, tert-butyl 2-(benzo[d]thiazol-2-yl)-2,7-diazaspiro[3.5]nonane-7-carboxylate] | 10
28 | CC(C)(C)OC(=O)N1CCC(=Cc2cc(F)c(C(=O)Nc3nc4ccccc4s3)c(F)c2)CC1 [Compound 1-98, tert-butyl 4-(4-(benzo[d]thiazol-2-ylcarbamoyl)-3,5-difluorobenzylidene)piperidine-1-carboxylate] | 21
29 | CCc1cnc(Oc2cccc(C(=O)Nc3nc4ccccc4[nH]3)c2)nc1 [Compound 1-8, N-(1H-benzo[d]imidazol-2-yl)-3-((5-ethylpyrimidin-2-yl)oxy)benzamide] | 44

From patent publication US20240116897A1, “BENZOTHIAZOLE AND BENZIMIDAZOLE DERIVATIVES, PHARMACEUTICALLY ACCEPTABLE SALT THEREOF, PREPARATION METHOD THEREFOR, AND PHARMACEUTICAL COMPOSITION COMPRISING SAME AS ACTIVE INGREDIENT” (KOREA RESEARCH INSTITUTE OF CHEMICAL TECHNOLOGY, priority 2021, published 2024)
